Patent US12534493B2, “Bridged nucleoside and nucleotide” (Liid Pharmaceuticals, Inc., priority 2020, dated 2026)

Columns and labels:
Assay type in all cases: binding
[1] = system: single-stranded RNA:5′-r(ACGAGANCAUCC)-3′, N = G; assay: Tm measurement with single-stranded RNA (base sequence identifying ability), N = G; settings: mismatch RNA N = G; for ΔTm (N = G), in parentheses: difference from N = A; for Tm (N = G): 10 mM sodium phosphate buffer, 200 mM NaCl
Method: (§1) A sample solution ([…]) with final concentrations of 10 mM phosphate buffer (pH7.0), 200 mM sodium chloride, and 2.5 μM each oligonucleotide was immersed in boiling water and slowly cooled to room temperature. The sample solution was cooled to 20° C., and the measurement was started. The temperature was raised to 90° C. at a rate of 0.5° C. per minute, and the absorbance at 260 nm was plotted at intervals of 0.5° C. All Tm values were calculated by the midline method and the average of three independent measurement results was taken.
(§2) conditions: 10 mM sodium phosphate buffer (pH7.0) containing 200 mM NaCl, […] of each strand

[2] = system: single-stranded DNA: 5′-d(ACGAGAACATCC)-3′ (SEQ ID NO: 12); assay: Melting temperature (Tm) measurement, double strand-forming ability, with single-stranded DNA; settings: duplex with single-stranded DNA SEQ ID NO: 12; for Tm: 10 mM phosphate buffer (pH7.0), 200 mM NaCl, 2.5 μM each oligonucleotide; for ΔTm/mod.: change per modification vs natural oligonucleotide
Method: as §1, §2

[3] = system: single-stranded RNA: 5′-r(ACGAGAACAUCC)-3′ (SEQ ID NO: 11); assay: Melting temperature (Tm) measurement, double strand-forming ability, with single-stranded RNA; settings: for Tm (N = A): Table 2, full-match RNA N = A, 10 mM sodium phosphate buffer; for Tm (N = A) / Tm: 200 mM NaCl; for Tm / ΔTm/mod.: duplex with single-stranded RNA SEQ ID NO: 11; for Tm: 10 mM phosphate buffer (pH7.0), 2.5 μM each oligonucleotide; for ΔTm/mod.: change per modification vs natural oligonucleotide
Method: as §1, §2

[4] = system: single-stranded RNA:5′-r(ACGAGANCAUCC)-3′, N = C; assay: Tm measurement with single-stranded RNA (base sequence identifying ability), N = C; settings: mismatch RNA N = C; for ΔTm (N = C), in parentheses: difference from N = A; for Tm (N = C): 10 mM sodium phosphate buffer, 200 mM NaCl
Method: as §1, §2

[5] = system: single-stranded RNA:5′-r(ACGAGANCAUCC)-3′, N = U; assay: Tm measurement with single-stranded RNA (base sequence identifying ability), N = U; settings: mismatch RNA N = U; for ΔTm (N = U), in parentheses: difference from N = A; for Tm (N = U): 10 mM sodium phosphate buffer, 200 mM NaCl
Method: as §1, §2

[6] = system: double-stranded hairpin DNA: 5′-d(GGCAGAAGAAAAAGAGACGC)-C18 spacer-d(GCGTCTCTTTTTCTTCTGCC)-3′ (SEQ ID NO: 23); assay: Melting temperature (Tm) measurement, triple strand-forming ability, with double-stranded hairpin DNA; settings: triplex with double-stranded hairpin DNA; for ΔTm/mod.: change per modification vs natural oligonucleotide; for Tm: footnote: 10 mM sodium phosphate buffer (pH 7.0), 200 mM NaCl, 5 mM MgCl2
Method: […] The sample solution was cooled to 15° C., and the measurement was started. The temperature was raised to 90° C. at a rate of 0.5° C. per minute, and the absorbance at 260 nm was plotted at intervals of 0.5° C. All Tm values were calculated by the midline method and the average of three independent measurement results was taken.

Substance	ΔTm (N = G), in parentheses [1]	Tm (N = G) [1] [°C]	Tm [2] [°C]	ΔTm/mod. [2]	Tm (N = A) [3] [°C]	Tm [3] [°C]	ΔTm/mod. [3]	ΔTm (N = C), in parentheses [4]	Tm (N = C) [4] [°C]	ΔTm (N = U), in parentheses [5]	Tm (N = U) [5] [°C]	ΔTm/mod. [6]	Tm [6] [°C]
5′-GGATGYTCTCGT-3′: modified oligonucleotide with one Y modification; Y not defined in the visible text (DNA GGATGTTCTCGT; Y modified nucleotide; misc_difference (6)..(6) LNA)	-5 º C.	53	54	+3.0 °C	58	58	+6.0 °C	-14 º C.	44	-13 º C.	45	–	–
5′-GGATGXTCTCGT-3′: modified oligonucleotide with one X modification; X not defined in the visible text (DNA GGATGTTCTCGT; DNA oligonucleotide with modified nucleotide X, X not given here, further chemistry not given here)	-5 º C.	53	53	+2.0 °C	58	58	+6.0 °C	-15 º C.	43	-14 º C.	44	–	–
5′-GGATGZTCTCGT-3′: modified oligonucleotide with one Z modification; Z not defined in the visible text (DNA GGATGTTCTCGT; Z modified nucleotide; misc_difference (6)..(6) ENA)	-4 º C.	54	52	+1.0 °C	58	58	+6.0 °C	-15 º C.	43	-13 º C.	45	–	–
5′ -TCTTCTTXTTCTCT-3′: modified oligonucleotide with one X modification; C shows 2′-deoxy-5-methylcytidine (DNA TCTTCTTTTTCTCT; X modified nucleotide; 5-methylcytidines; (2)..(2) 2′-Deoxy-5-methylcytidine; (5)..(5) 2′-Deoxy-5-methylcytidine; misc_difference (8)..(8) Me-TaNA; (11)..(11) 2′-Deoxy-5-methylcytidine; (13)..(13) 2′-Deoxy-5-methylcytidine)	–	–	–	–	–	–	–	–	–	–	–	+5.0 °C	36
5′-GGATGTTCTCGT-3′: unmodified (natural) oligonucleotide, SEQ ID NO: 1 (unmodified DNA)	-4 º C.	48	51	–	52	52	–	-14 º C.	38	-12 º C.	40	–	–
5′ -TCTTCTTZTTCTCT-3′: modified oligonucleotide with one Z modification; C shows 2′-deoxy-5-methylcytidine (DNA TCTTCTTTTTCTCT; Z modified nucleotide; 5-methylcytidines; (2)..(2) 2′-Deoxy-5-methylcytidine; (5)..(5) 2′-Deoxy-5-methylcytidine; misc_difference (8)..(8) ENA; (11)..(11) 2′-Deoxy-5-methylcytidine; (13)..(13) 2′-Deoxy-5-methylcytidine)	–	–	–	–	–	–	–	–	–	–	–	+5.0 °C	36
5′ -TCTTCTTTTTCTCT-3′: unmodified triplex-forming oligonucleotide; C shows 2′-deoxy-5-methylcytidine (DNA, all C 5-methyl, backbone not given here; triplex-forming oligonucleotide)	–	–	–	–	–	–	–	–	–	–	–	–	31
